Biological target: T1, PI4KA (PI4K alpha) (Homo sapiens, UniProt P42356)
T1 construct: purchased Thermo Fisher Scientific (Life Technologies) SelectScreen
Experiment: SelectScreen Adapta
Type: biochemical
Settings: ATP 10 µM
How it was run: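 NU5455 was profiled across the SelectScreen Broad panel of kinase activity and binding assays. Z'LYTE reactions such as CSF1R ran at apparent Km ATP, while the Adapta CAMK1 assay used ATP listed as 10. Values are given as percent.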

T1 sequence (P42356 whole entry): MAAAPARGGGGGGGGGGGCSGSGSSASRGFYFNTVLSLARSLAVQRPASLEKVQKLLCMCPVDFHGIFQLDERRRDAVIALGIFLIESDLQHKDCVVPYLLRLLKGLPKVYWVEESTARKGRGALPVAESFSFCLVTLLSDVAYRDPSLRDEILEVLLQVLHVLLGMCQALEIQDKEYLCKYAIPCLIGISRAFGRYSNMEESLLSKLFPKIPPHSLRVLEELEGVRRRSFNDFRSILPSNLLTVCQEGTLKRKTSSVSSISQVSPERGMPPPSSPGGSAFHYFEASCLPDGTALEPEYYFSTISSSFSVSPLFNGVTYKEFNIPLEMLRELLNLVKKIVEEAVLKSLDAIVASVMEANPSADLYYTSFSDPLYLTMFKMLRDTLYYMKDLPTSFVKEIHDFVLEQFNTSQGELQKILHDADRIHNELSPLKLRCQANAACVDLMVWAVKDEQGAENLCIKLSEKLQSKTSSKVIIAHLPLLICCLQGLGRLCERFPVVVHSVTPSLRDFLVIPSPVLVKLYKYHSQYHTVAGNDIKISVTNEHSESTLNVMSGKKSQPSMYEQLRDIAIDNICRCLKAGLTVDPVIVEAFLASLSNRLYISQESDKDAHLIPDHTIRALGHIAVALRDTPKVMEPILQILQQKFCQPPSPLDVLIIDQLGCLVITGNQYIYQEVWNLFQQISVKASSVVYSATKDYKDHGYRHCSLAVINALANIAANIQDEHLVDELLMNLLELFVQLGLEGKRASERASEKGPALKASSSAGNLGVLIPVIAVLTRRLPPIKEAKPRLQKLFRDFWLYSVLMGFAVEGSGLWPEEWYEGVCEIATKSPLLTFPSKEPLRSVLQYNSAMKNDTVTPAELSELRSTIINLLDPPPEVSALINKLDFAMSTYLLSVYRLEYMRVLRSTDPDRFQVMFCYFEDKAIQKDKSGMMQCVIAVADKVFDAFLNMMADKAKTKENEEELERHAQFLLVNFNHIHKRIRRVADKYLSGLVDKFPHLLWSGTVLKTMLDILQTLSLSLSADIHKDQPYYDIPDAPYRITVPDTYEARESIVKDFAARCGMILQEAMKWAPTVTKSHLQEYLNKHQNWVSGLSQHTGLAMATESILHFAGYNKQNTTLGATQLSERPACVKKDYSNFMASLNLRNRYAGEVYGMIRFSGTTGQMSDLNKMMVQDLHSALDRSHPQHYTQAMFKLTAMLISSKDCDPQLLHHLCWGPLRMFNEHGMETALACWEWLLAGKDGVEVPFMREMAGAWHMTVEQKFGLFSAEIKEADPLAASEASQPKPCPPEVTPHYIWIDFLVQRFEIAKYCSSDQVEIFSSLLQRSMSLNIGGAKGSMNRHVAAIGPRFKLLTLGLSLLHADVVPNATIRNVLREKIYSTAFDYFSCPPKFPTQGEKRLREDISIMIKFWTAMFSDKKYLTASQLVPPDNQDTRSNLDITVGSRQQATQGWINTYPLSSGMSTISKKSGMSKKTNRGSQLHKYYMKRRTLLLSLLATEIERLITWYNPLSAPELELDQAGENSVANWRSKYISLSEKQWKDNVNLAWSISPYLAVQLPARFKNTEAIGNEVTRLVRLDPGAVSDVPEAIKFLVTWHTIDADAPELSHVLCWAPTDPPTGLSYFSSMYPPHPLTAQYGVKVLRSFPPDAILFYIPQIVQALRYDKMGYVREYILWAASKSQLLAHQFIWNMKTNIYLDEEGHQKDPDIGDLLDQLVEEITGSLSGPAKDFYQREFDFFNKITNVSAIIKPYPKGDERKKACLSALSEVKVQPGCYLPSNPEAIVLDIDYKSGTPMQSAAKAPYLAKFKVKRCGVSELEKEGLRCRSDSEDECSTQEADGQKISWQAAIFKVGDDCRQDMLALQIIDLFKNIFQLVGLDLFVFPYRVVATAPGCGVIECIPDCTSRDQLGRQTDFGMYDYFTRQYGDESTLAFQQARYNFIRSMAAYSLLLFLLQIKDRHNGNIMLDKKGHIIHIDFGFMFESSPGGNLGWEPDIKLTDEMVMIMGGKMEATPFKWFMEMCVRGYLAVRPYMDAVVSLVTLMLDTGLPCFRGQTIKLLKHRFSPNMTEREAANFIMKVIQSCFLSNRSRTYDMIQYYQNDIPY

`CN(C(=O)CN1CCOCC1)c1ccc2sc3c(-c4cccc5c(=O)cc(N6CC7CCC(C6)O7)oc45)cccc3c2c1` [NU5455] was tested, and the inhibition at 1 µM was 7.8%.

From article PMC6934184, “Selective DNA-PKcs inhibition extends the therapeutic index of localized radiotherapy and chemotherapy” (The Journal of Clinical Investigation, 2019)
